According to patent US20120122148A1, “Media For The Specific Detection Of Gram-Negative Bacteria Resistant To Beta-Lactam Antibiotics” (bioMerieux, SA, priority 2009, published 2012):

Assays:
Assay type in all cases: cell-based
[1] = test system: Escherichia coli 0505101 (ESBL); test: Growth and enzymatic activity on ChromID CPS-based selective media; design: Enz act.: key to the marks not given beside the values; conditions: cefpodoxime 4 mg/l (T), cefepime 0.25 mg/l (A), cefamandole 3 mg/l (B), cefuroxime 3 mg/l (C), each with 300 mg/l cloxacillin
From the text: (§1) Choice of strains: The inventors selected strains which make it possible to evaluate the activity of antibiotics with respect to Gram-negative species: enterobacteria and nonfermenting bacilli. In particular, ESBL-producing strains, high-level cephalosporinase-producing strains (HL Case) and strains without a particular resistance profile, termed wild-type strains, were used.
(§2) Preparation of media: The media tested were media composed of the peptone base of the ChromID CPS medium (bioMérieux ref 43541) to which were added, after autoclaving, in molten media, 300 mg/l cloxacillin and, for medium T: 4 mg/l cefpodoxime, for medium A: 0.25 mg/L of cefepime, for medium B: 3 mg/l of cefamandole and for medium C: 3 mg/l of cefuroxime.
(§3) Inoculation of media: The media are inoculated by carrying out a 3-quadrant streaking method using bacterial suspensions at 0.5 McF. The media are then incubated for 24 hours at 37° C.
(§4) Reading of media: The media are observed visually after 18 h and 24 hours of incubation, the growth density and also the colorations and coloration strengths are evaluated according to the scale below: • − or 0: absence of growth or of expression of enzymatic acitivity (i.e. no coloration) • +: weak growth, or enzymatic activity • ++: very strong growth density or strong enzymatic acitivity (very strong coloration)

[2] = test system: Klebsiella oxytoca 0502094 (ESBL); test: as above; design: key to the marks not given beside the values; conditions: cefpodoxime 4 mg/l (T), cefepime 0.25 mg/l (A), cefamandole 3 mg/l (B), cefuroxime 3 mg/l (C), each with 300 mg/l cloxacillin
From the text: as §1, §2, §3, §4

[3] = test system: Enterobacter aerogenes 0502112 (ESBL); test: as above; design: key to the marks not given beside the values; conditions: cefpodoxime 4 mg/l (T), cefepime 0.25 mg/l (A), cefamandole 3 mg/l (B), cefuroxime 3 mg/l (C), each with 300 mg/l cloxacillin
From the text: as §1, §2, §3, §4

[4] = test system: Escherichia coli 0411146 (ESBL); test: as above; design: key to the marks not given beside the values; conditions: cefpodoxime 4 mg/l (T), cefepime 0.25 mg/l (A), cefamandole 3 mg/l (B), cefuroxime 3 mg/l (C), each with 300 mg/l cloxacillin
From the text: as §1, §2, §3, §4

[5] = test system: Enterobacter spp 9306069 (HL case); test: as above; design: key to the marks not given beside the values; conditions: cefpodoxime 4 mg/l (T), cefepime 0.25 mg/l (A), cefamandole 3 mg/l (B), cefuroxime 3 mg/l (C), each with 300 mg/l cloxacillin
From the text: as §1, §2, §3, §4

[6] = test system: ESBL-producing strains, strains producing an HL Case, wild-type taxon strains; test: Overall conclusion on the selective media over the strain panel
From the text: as §1, §2, §3, §4

[7] = test system: Serratia fonticola 8001047 (Wild-type); test: Growth and enzymatic activity on ChromID CPS-based selective media; conditions: cefpodoxime 4 mg/l (T), cefepime 0.25 mg/l (A), cefamandole 3 mg/l (B), cefuroxime 3 mg/l (C), each with 300 mg/l cloxacillin
From the text: as §1, §2, §3, §4

[8] = test system: Morganella morganii 9904104 (HL case); test: as above; conditions: cefpodoxime 4 mg/l (T), cefepime 0.25 mg/l (A), cefamandole 3 mg/l (B), cefuroxime 3 mg/l (C), each with 300 mg/l cloxacillin
From the text: as §1, §2, §3, §4

[9] = test system: Proteus mirabilis 0105105 (HL case); test: as above; conditions: cefpodoxime 4 mg/l (T), cefepime 0.25 mg/l (A), cefamandole 3 mg/l (B), cefuroxime 3 mg/l (C), each with 300 mg/l cloxacillin
From the text: as §1, §2, §3, §4

[10] = test system: Proteus mirabilis 9709068 (ESBL); test: as above; conditions: cefpodoxime 4 mg/l (T), cefepime 0.25 mg/l (A), cefamandole 3 mg/l (B), cefuroxime 3 mg/l (C), each with 300 mg/l cloxacillin
From the text: as §1, §2, §3, §4

[11] = test system: Proteus mirabilis 0105109 (HL case); test: as above; conditions: cefpodoxime 4 mg/l (T), cefepime 0.25 mg/l (A), cefamandole 3 mg/l (B), cefuroxime 3 mg/l (C), each with 300 mg/l cloxacillin
From the text: as §1, §2, §3, §4

[12] = test system: Klebsiella oxytoca 0105100 (HL case); test: as above; conditions: cefpodoxime 4 mg/l (T), cefepime 0.25 mg/l (A), cefamandole 3 mg/l (B), cefuroxime 3 mg/l (C), each with 300 mg/l cloxacillin
From the text: as §1, §2, §3, §4

[13] = test system: Enterobacter spp 0503037 (Wild-type); test: as above; conditions: cefpodoxime 4 mg/l (T), cefepime 0.25 mg/l (A), cefamandole 3 mg/l (B), cefuroxime 3 mg/l (C), each with 300 mg/l cloxacillin
From the text: as §1, §2, §3, §4

With `CO/N=C(\C(=O)N[C@@H]1C(=O)N2C(C(=O)[O-])=C(C[N+]3(C)CCCC3)CS[C@H]12)c1csc(N)n1` [Cefepime, cefepime] the Enz act. ([1]; 18 h at 37° C.) was “++”, the Growth ([1]; 18 h at 37° C.) was “++” and the Enz act. ([1]; 24 h at 37° C.) was “++”. The Growth ([1]; 24 h at 37° C.) was “++”, the Enz act. ([2]; 18 h at 37° C.) was “++” and the Growth ([2]; 18 h at 37° C.) was “++”. For the same compound, the Enz act. ([2]; 24 h at 37° C.) was “++”, the Growth ([2]; 24 h at 37° C.) was “++” and the Enz act. ([3]; 18 h at 37° C.) was “++”. For the same compound, the Growth ([3]; 18 h at 37° C.) was “++”, the Enz act. ([3]; 24 h at 37° C.) was “++” and the Growth ([3]; 24 h at 37° C.) was “++”. The Enz act. ([4]; 18 h at 37° C.) was “++”, the Growth ([4]; 18 h at 37° C.) was “++” and the Enz act. ([4]; 24 h at 37° C.) was “++”. The Growth ([4]; 24 h at 37° C.) was “++”, the Enz act. ([5]; 18 h at 37° C.) was “++” and the Growth ([5]; 18 h at 37° C.) was “++”. For the same compound, the Enz act. ([5]; 24 h at 37° C.) was “++”, the Growth ([5]; 24 h at 37° C.) was “++” and the “sensitivity and specificity of detection of the ESBL strains” value ([6]; compared with cefpodoxime, cefamandole, cefuroxime media) was “best sensitivity and specificity”. The “discrimination between the ESBL-producing strains, the strains producing an HL Case or the wild-type taxon strains” value ([6]; medium A: 0.25 mg/L cefepime with 300 mg/l cloxacillin) was “good discrimination”, the Enz act. ([7]; 18 h at 37° C.) was “−” and the Growth ([7]; 18 h at 37° C.) was “−”. The Enz act. ([7]; 24 h at 37° C.) was “−”, the Growth ([7]; 24 h at 37° C.) was “−” and the Enz act. ([8]; 18 h at 37° C.) was “−”. The Growth ([8]; 18 h at 37° C.) was “−”, the Enz act. ([8]; 24 h at 37° C.) was “−” and the Growth ([8]; 24 h at 37° C.) was “−”. For the same compound, the Enz act. ([9]; 18 h at 37° C.) was “−”, the Growth ([9]; 18 h at 37° C.) was “−” and the Enz act. ([9]; 24 h at 37° C.) was “−”. For the same compound, the Growth ([9]; 24 h at 37° C.) was “−”, the Enz act. ([10]; 18 h at 37° C.) was “+” and the Growth ([10]; 18 h at 37° C.) was “+”. For the same compound, the Enz act. ([10]; 24 h at 37° C.) was “+”, the Growth ([10]; 24 h at 37° C.) was “+” and the Enz act. ([11]; 18 h at 37° C.) was “−”. The Growth ([11]; 18 h at 37° C.) was “−”, the Enz act. ([11]; 24 h at 37° C.) was “−” and the Growth ([11]; 24 h at 37° C.) was “−”. The Enz act. ([12]; 18 h at 37° C.) was “−”, the Growth ([12]; 18 h at 37° C.) was “−” and the Enz act. ([12]; 24 h at 37° C.) was “−”. The Growth ([12]; 24 h at 37° C.) was “−”, the Enz act. ([13]; 18 h at 37° C.) was “−” and the Growth ([13]; 18 h at 37° C.) was “−”. For the same compound, the Enz act. ([13]; 24 h at 37° C.) was “−” and the Growth ([13]; 24 h at 37° C.) was “−”.
